In US8574837B2, “System for screening agonists/antagonists of cellular signaling pathways” (President and Fellows of Harvard College, priority 2008, dated 2013):

Tests used:
Smo [1] = target: T1, Smo (Homo sapiens, UniProt Q99835); experiment: Smo translocation assay (A1::Smo::GFP / Smo colocalization with Arl13b at the primary cilium); format: cell-based; conditions: for Smo translocation to the primary cilium, agent applied alone: NIH/3T3 cells, ShhN 25 nM, SAG 200 nM, purmorphamine, 20-OHC, cyclopamine, GANT61 10 μM, SANT-1, SANT-2 1 μM, 24 hr; for ShhN-dependent translocation of Smo to the primary cilium, antagonist plus ShhN: ShhN 25 nM plus SANT-1 or SANT-2 1 μM or GANT61 10 μM, FIG. 6
T1 construct: expressed in transfected cells; host or cells: NIH/3T3 (mouse fibroblasts), retroviral infection with pBabe-A1::Smo::GFP, clonal lines
Description: All 3T3 cell lines were plated at a density of 1×10^4 cells per well in fibronectin coated Lab-Tek™ Chamber Slides (Nunc, 178599). The cells were grown to confluence, then switched to […] containing 0.5% BCS with indicated treatments for 24 hr or as stated elsewhere herein. Immunostaining was performed after fixation in 4% Paraformaldehyde (PFA) according to standard protocols. AcpS labeling reactions were performed as described previously (Zhou et al., 2007). Fluorescent images were collected after fixing samples using a Zeiss LSM510 META on an inverted microscope, with a 63× (1.4 NA) oil-immersion objective lens utilizing four laser lines (405 nm, 488 nm, 543 nm, 633 nm).
Mouse recombinant ShhN purified protein was purchased from R&D Systems (#464-SH-025). SAG, SANT-2, and GANT61 were purchased from Axxora (#ALX-270-426, #ALX-270-436, #ALX-270-482; Axxora, LLC, San Diego, Calif.). SANT-1 was obtained from Tocris Bioscience (#1974). DMSO was from Sigma Aldrich (D2650). Purmorphamine was from Calbiochem (#540220). […] AcpS, Texas Red-CoA, and Alexa633-CoA were prepared as described previously (Zhou et al., 130 J. Am. Chem. Soc. 9925-30 (2008)).

[2] = tested on: UV-irradiated Ptch1^+/− mice; conditions: prolonged systemic treatment; cited from earlier work
Smo [3] = target: Smo (Mus musculus, UniProt P56726); conditions: cited from earlier work
SmoA1 = conditions: cited from earlier work
Hh signaling = experiment: Gli-luciferase assay (Ptch1-promoter driven luciferase reporter); format: cell-based, mouse; conditions: NIH/3T3 cells, RNAi knock down of suFU; FIG. 3
Description: Cells were plated at a density of 5×10^4 per well in 24-well plates 18 hr prior to transfection. DNA transfection was performed using Lipofectamine™ 2000 transfection reagent (Invitrogen, #11668); the DNA introduced in each well included 100 ng CMV driven Renilla luciferase construct, 300 ng Ptch1 promoter-driven firefly luciferase construct, and 400 ng of each shRNA construct or a PBS plasmid as a control. Cells were grown for two days; then the medium was changed to DMEM containing 0.5% BCS and proteins/compounds indicated in the text. Cells were cultured for an additional 48 hr, tryspinized, lysed and assayed using a Promega Dual Luciferase Reporter Essay System Kit (E1910). Renilla luciferase signal was used to normalize the firefly luciferase signal. The RNAi efficiency was measured as previous described (Varjosalo et al., 2006). In all luciferase assays, every condition was repeated in quadruplicate wells and experiments were repeated at least three times.
Mouse recombinant ShhN purified protein was purchased from R&D Systems (#464-SH-025). SAG, SANT-2, and GANT61 were purchased from Axxora (#ALX-270-426, #ALX-270-436, #ALX-270-482; Axxora, LLC, San Diego, Calif.). SANT-1 was obtained from Tocris Bioscience (#1974). DMSO was from Sigma Aldrich (D2650). Purmorphamine was from Calbiochem (#540220). […]

Gli1 = target: T2, Gli1 (Homo sapiens, UniProt P08151); conditions: cited from earlier work
T2 sequence (P08151 1-1106): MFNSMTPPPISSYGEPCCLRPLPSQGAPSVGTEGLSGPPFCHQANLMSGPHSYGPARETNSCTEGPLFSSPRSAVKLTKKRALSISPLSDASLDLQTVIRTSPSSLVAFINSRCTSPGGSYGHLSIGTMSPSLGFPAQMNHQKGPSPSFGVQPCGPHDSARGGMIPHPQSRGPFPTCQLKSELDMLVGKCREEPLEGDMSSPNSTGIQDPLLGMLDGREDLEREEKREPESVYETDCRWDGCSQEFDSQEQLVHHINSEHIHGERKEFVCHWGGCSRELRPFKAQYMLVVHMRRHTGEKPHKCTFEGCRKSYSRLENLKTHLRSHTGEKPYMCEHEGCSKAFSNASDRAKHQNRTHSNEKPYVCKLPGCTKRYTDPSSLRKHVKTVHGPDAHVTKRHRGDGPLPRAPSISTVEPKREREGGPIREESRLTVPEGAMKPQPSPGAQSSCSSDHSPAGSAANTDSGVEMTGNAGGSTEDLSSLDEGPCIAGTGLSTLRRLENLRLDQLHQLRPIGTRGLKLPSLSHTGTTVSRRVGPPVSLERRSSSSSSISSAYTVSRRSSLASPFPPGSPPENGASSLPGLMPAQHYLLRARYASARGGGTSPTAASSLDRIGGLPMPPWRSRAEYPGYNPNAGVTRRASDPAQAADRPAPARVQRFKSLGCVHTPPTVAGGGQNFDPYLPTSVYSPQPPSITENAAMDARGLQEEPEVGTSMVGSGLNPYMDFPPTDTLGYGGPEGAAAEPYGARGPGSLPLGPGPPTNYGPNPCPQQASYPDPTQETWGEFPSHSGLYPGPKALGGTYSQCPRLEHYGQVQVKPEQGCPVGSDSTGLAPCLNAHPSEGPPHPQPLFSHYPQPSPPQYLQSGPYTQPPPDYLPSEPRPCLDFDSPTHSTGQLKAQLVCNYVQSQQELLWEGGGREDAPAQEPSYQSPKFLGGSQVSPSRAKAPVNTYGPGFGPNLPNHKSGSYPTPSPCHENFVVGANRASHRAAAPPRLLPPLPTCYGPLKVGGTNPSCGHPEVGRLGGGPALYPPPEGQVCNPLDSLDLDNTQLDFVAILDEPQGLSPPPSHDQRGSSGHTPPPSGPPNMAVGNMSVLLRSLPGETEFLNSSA

T1 sequence (Q99835 28-787): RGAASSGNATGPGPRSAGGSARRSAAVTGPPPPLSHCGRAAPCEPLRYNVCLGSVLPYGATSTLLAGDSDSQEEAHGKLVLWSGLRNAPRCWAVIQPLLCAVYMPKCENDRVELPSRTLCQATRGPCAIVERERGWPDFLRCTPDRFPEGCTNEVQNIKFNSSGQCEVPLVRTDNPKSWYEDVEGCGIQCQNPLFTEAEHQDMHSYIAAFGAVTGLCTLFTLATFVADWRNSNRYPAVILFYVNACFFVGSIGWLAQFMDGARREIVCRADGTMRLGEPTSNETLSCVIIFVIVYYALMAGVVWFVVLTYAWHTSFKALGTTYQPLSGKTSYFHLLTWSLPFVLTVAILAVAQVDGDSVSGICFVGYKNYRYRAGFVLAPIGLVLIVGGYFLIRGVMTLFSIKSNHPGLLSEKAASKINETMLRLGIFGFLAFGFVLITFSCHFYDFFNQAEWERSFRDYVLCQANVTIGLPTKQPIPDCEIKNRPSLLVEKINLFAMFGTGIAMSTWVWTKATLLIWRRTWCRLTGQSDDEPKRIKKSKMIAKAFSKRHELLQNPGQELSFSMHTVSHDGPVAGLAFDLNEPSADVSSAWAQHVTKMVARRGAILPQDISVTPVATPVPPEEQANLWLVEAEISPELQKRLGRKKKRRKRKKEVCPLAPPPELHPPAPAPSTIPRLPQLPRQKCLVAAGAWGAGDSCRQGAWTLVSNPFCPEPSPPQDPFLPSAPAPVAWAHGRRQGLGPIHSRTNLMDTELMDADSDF
Chain of Smo (Mus musculus, UniProt P56726) (P56726 33-793): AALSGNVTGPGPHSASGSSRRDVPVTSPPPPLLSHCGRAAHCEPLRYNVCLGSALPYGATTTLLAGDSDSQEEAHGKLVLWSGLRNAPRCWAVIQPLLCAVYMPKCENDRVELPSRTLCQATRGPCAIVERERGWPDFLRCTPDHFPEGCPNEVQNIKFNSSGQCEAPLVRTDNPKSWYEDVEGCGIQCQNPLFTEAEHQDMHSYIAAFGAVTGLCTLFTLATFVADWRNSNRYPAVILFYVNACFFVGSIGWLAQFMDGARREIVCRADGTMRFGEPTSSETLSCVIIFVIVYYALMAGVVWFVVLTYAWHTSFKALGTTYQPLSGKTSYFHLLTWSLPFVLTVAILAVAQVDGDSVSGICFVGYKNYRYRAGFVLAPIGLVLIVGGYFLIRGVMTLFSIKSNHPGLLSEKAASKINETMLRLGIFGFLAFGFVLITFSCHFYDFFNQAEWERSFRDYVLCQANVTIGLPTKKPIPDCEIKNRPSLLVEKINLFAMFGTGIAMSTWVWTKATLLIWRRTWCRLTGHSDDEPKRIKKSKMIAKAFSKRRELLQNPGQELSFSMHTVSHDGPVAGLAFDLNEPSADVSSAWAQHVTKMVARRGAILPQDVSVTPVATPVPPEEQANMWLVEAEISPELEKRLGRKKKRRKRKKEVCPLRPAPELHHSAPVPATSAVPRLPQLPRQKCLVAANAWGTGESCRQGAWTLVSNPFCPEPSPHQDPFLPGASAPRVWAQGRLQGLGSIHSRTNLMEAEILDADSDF

| Structure (SMILES) | Smo translocation to the primary cilium, agent applied alone (Smo [1]) | ShhN-dependent translocation of Smo to the primary cilium, antagonist plus ShhN (Smo [1]) | further results |
| --- | --- | --- | --- |
| CC1=C2C[C@H]3[C@@H](CC=C4C[C@@H](O)CC[C@@]43C)[C@@H]2CC[C@]12O[C@@H]1C[C@H](C)CN[C@H]1[C@H]2C [cyclopamine] | drove Smo to the primary cilium |  | Tumor formation [2]: significantly diminish tumor formation |
| Cc1nn(-c2ccccc2)c(C)c1/C=N/N1CCN(Cc2ccccc2)CC1 [SANT-1] | do not induce obvious localization change of Smo | abrogate the ShhN-dependent translocation of Smo to the primary cilium | Competition for cyclopamine binding of Smo (Smo [3]): compete for cyclopamine binding of Smo; Inhibition of SmoA1 activity, dose relative to wild-type Smo (SmoA1): at a comparable dose to that required to inhibit wild-type Smo |
| c1ccc2c(Oc3nc(Nc4ccc(N5CCOCC5)cc4)c4ncn(C5CCCCC5)c4n3)cccc2c1 [purmorphamine] | Smo translocated to the primary cilium |  |  |
| CN(C)c1ccccc1CN1CCCN(Cc2ccccc2N(C)C)C1c1ccncc1 [GANT61] | do not induce obvious localization change of Smo | abrogate the ShhN-dependent translocation of Smo to the primary cilium | Gli activity when the endogenous Gli antagonist suFU was knocked down (Hh signaling): inhibited Gli activity; Gli1 binding to DNA (Gli1): inhibits Gli1 binding to DNA |
| CCOc1cc(C(=O)Nc2ccc(Cl)c(-c3nc4ccccc4[nH]3)c2)cc(OCC)c1OCC [SANT-2] | do not induce obvious localization change of Smo | abrogate the ShhN-dependent translocation of Smo to the primary cilium | Competition for cyclopamine binding of Smo (Smo [3]): compete for cyclopamine binding of Smo; Inhibition of SmoA1 activity, dose relative to wild-type Smo (SmoA1): at a comparable dose to that required to inhibit wild-type Smo |
| CC(C)CCC[C@](C)(O)[C@H]1CC[C@H]2[C@@H]3CC=C4C[C@@H](O)CC[C@]4(C)[C@H]3CC[C@@]21C [20-OHC, 20α-hydroxycholesterol] | Smo translocated to the primary cilium |  |  |
| CNC1CCC(N(Cc2cccc(-c3ccncc3)c2)C(=O)c2sc3ccccc3c2Cl)CC1 (centres unmarked) [SAG] | Smo translocated to the primary cilium |  |  |
